Measurements from ChEMBL document CHEMBL1201862, “PubChem BioAssay data set” (2004).
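Assay format: 96-well plates, 48-hour exposure. GI50 marks 50% less growth.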 Activity calls are given as the source filed them. No stated cut-off is given here; in the data, active = GI50 up to about 1.1 µM and inactive = higher.

Experiments:
Experiment in all cases: growth of human tumour cells (NCI), 48 h
SK-MEL-2 = system: SK-MEL-2
Malme-3M = system: Malme-3M
NCI-H522 = system: NCI-H522
RXF 393 = system: RXF 393
DU-145 = system: DU-145
TK-10 = system: TK-10
HL-60 = system: HL-60
HOP-62 = system: HOP-62
COLO 205 = system: COLO 205
SF-295 = system: SF-295
BT-549 = system: BT-549
M14 = system: M14
MDA-MB-435 = system: MDA-MB-435
HT-29 = system: HT-29
HCT-116 = system: HCT-116
SN12C = system: SN12C
786-0 = system: 786-0
K562 = system: K562
SK-MEL-28 = system: SK-MEL-28

Measured: GI50

COC(=O)NC(Cc1ccccc1)NC(C)=O (centres undefined)
inactive: SK-MEL-2 > 100 µM | Malme-3M > 100 µM | NCI-H522 > 100 µM | RXF 393 > 100 µM | DU-145 > 100 µM | TK-10 > 100 µM | HL-60 > 100 µM | HOP-62 > 100 µM | COLO 205 > 100 µM | SF-295 > 100 µM | BT-549 > 100 µM | M14 > 100 µM | MDA-MB-435 > 100 µM | HT-29 > 100 µM | HCT-116 > 100 µM | SN12C > 100 µM | 786-0 > 100 µM | K562 > 100 µM | SK-MEL-28 > 100 µM

COc1ccc(CNc2ccn(C3OC(CO)C(O)C3O)c(=O)n2)cc1 (centres undefined)
inactive: SK-MEL-2 > 100 µM | Malme-3M > 100 µM | NCI-H522 70.1 µM | RXF 393 > 100 µM | DU-145 > 100 µM | TK-10 > 100 µM | HL-60 27.2 µM | HOP-62 > 100 µM | COLO 205 > 100 µM | SF-295 > 100 µM | BT-549 62.5 µM | M14 50.5 µM | MDA-MB-435 44.8 µM | HT-29 46.3 µM | HCT-116 55.5 µM | SN12C > 100 µM | 786-0 > 100 µM | K562 34.8 µM | SK-MEL-28 > 100 µM

CSC(CC(=O)O)C(=O)O (centres undefined)
inactive: SK-MEL-2 > 100 µM | Malme-3M > 100 µM | NCI-H522 > 100 µM | RXF 393 > 100 µM | DU-145 > 100 µM | TK-10 > 100 µM | HL-60 > 100 µM | HOP-62 > 100 µM | COLO 205 > 100 µM | SF-295 > 100 µM | BT-549 > 100 µM | M14 > 100 µM | MDA-MB-435 > 100 µM | HT-29 > 100 µM | HCT-116 > 100 µM | SN12C > 100 µM | 786-0 > 100 µM | SK-MEL-28 > 100 µM

CCc1n[nH]c(=O)[nH]1
inactive: SK-MEL-2 > 100 µM | Malme-3M > 100 µM | NCI-H522 > 100 µM | RXF 393 > 100 µM | DU-145 > 100 µM | TK-10 > 100 µM | HL-60 > 10 µM | HOP-62 > 100 µM | COLO 205 > 100 µM | SF-295 > 100 µM | BT-549 > 100 µM | M14 > 100 µM | MDA-MB-435 > 100 µM | HT-29 > 100 µM | HCT-116 > 100 µM | SN12C > 100 µM | 786-0 > 100 µM | K562 > 100 µM
